This is an account of results in patent US20240342152A1, “Method of Treatment” (Vanda Pharmaceuticals Inc., priority 2022, published 2024).

For series [1], the system named is patients with bipolar I disorder. Put plainly: Phase III clinical study of iloperidone in acute manic and mixed episodes associated with bipolar I disorder. It is filed as in vivo, adults. On the procedure: In a Phase III clinical study of iloperidone as a treatment of acute manic and mixed episodes associated with bipolar I disorder, approximately 400 volunteers with a history of bipolar disorder and suffering from a current episode of mania are randomized to receive either iloperidone or placebo in a 1:1 ratio. Treatment efficacy is assessed using the Young Mania Rating Scale (YMRS), a known rating scale of clinical severity in the core symptoms of mania, as well as the Clinician Global Impression of Severity (CGI-S) and the Clinician Global Impression of Change (CGI-C).
YMRS assessments are made at baseline and during days 7, 10, 14, 21, and 28 using the following key: • 0=reports no decrease in sleep; • 1=sleeping less than normal amount by up to one hour; • 2=sleeping less than normal by more than one hour; • 3=reports decreased need for sleep; and • 4=denies need for sleep.
Patients receive four weeks of double-blind treatment comprising the administration of 24 mg/d iloperidone b.i.d. (12 mg twice daily), 12 mg/d b.i.d. (6 mg twice daily) for poor metabolizers, or placebo. CYP2D6 non-poor metabolizers are titrated to a clinical dose of 24 mg/day (12 mg twice daily) by administering 1 mg twice per day on day 1, 3 mg twice per day on day 2, 6 mg twice per day on day 3, 9 mg twice per day on day 4, and 12 mg twice per day on day 5 and each day thereafter. CYP2D6 poor metabolizers are titrated to 12 mg/day (6 mg twice daily) by administering 1 mg twice per day on day 1, 3 mg twice per day on day 2, and 6 mg twice per day on day 3 and each day thereafter.

Series [2] relates to adults with schizophrenia or bipolar I disorder. Put plainly: Clinical study of tolerability of faster iloperidone titration (orthostatic hypotension monitoring). It is filed as in vivo. The conditions noted are these: n=12. The method, then: A clinical study of adults (n=12, age 18-65, inclusive) with schizophrenia or bipolar I disorder is conducted to assess the tolerability of a faster iloperidone titration scheme. Patients are assigned to one of two cohorts based on CYP2D6 phenotype.
CYP2D6 non-poor metabolizers are titrated to a clinical dose of 24 mg/day (12 mg twice daily) by administering 1 mg twice per day on day 1, 3 mg twice per day on day 2, 6 mg twice per day on day 3, 9 mg twice per day on day 4, and 12 mg twice per day on day 5. CYP2D6 poor metabolizers are titrated to 12 mg/day (6 mg twice daily) by administering 1 mg twice per day on day 1, 3 mg twice per day on day 2, and 6 mg twice per day on day 3. In each case, the target dose of 24 mg/day or 12 mg/day is continued until day 7.
Patients are monitored for OH by measuring blood pressure after lying supine for three minutes and two minutes after standing. OH is defined as a fall in systolic blood pressure of 20 mmHg or more or a fall in diastolic blood pressure of 10 mmHg or more.
The results are compared to historical placebo data from a prior study of the FDA-approved titration regimen.

In series [3] the test system is patients with schizophrenia. The conditions noted are these: patients continuing on therapy past the titration period; cited from earlier work.
[4] abbreviates: endpoint (day 28), ITT population, N = 198.

SMILES strings stand for the structures.

As for `COc1cc(C(C)=O)ccc1OCCCN1CCC(c2noc3cc(F)ccc23)CC1` [Iloperidone, 1-[4-[3-[4-(6-fluoro-1,2-benzisoxazol-3-yl)-1-piperidinyl]propoxy]-3-methoxyphenyl]ethanone], in series [1] (N = 206), the “Sedation reported as treatment-emergent adverse event” value is 5 (2.4) n (%) and the “Somnolence reported as treatment-emergent adverse event” value is 11 (5.3) n (%). Besides, the “Onset of statistically significant YMRS benefit versus placebo” value in series [1] (YMRS assessment) is “as early as the end of week 2”. Moreover, the “YMRS Total Score, Diff (iloperidone vs placebo)” value in series [1] (day 28, ITT population, p-value 0.000008) was −4.0. In addition, the “CGI-C, Diff (iloperidone vs placebo)” value in series [1] (day 28, ITT population, p-value 0.0002) was −0.5. In addition, the “CGI-S, Diff (iloperidone vs placebo)” value in series [1] (day 28, ITT population, p-value 0.0005) is on record as −0.4. Besides, the “MADRS Total Score, Diff (iloperidone vs placebo)” value in series [1] (day 28, ITT population, p-value 0.1365) is listed as −0.9. In series [1] (setting [4]), the CGI-C was 2.3; the “CGI-S, change from baseline” value was −1.5; the “MADRS Total Score, change from baseline” value is listed as −2.7. For the same compound, in series [1] (endpoint (day 28), ITT population, N = 198, 24 mg/d b.i.d. (12 mg/d for CYP2D6 poor metabolizers)), the “YMRS Total Score, change from baseline” value is listed as −14.0. Also, the “YMRS change associated with SNP rs62300864 (SHROOM3)” value in series [1] (iloperidone-treated group (n=167), p 1.64 × 10^−6) is given as 12.08 ± 2.43. Further, the “YMRS change associated with SNP rs55837573 (RELN)” value in series [1] (iloperidone-treated group (n=167), p 2.48 × 10^−6) is given as −4.61 ± 0.94. In addition, the “YMRS change associated with SNP rs76876307 (FAT3)” value in series [1] (iloperidone-treated group (n=167), p 5.27 × 10^−6) is reported as 15.44 ± 3.28. The “YMRS change associated with SNP rs1118464 (NAV2)” value in series [1] (iloperidone-treated group (n=167), p 6.98 × 10^−6) is on record as −4.15 ± 0.89. Further, the “YMRS sleep component, least squares mean change from baseline to day 28” value in series [1] (placebo −0.95, p=0.008) is recorded as −1.26. Also, the “Tolerability of faster titration” value in series [2] (compared to historical placebo data) is “well-tolerated”. The “Patients meeting orthostatic hypotension (OH) criteria” value in series [2] (faster titration to 24 mg/day (12 mg/day poor metabolizers), to day 7, OH = fall in systolic ≥20 mmHg or diastolic ≥10 mmHg) is recorded as “Only one patient receiving iloperidone met the OH criteria”. For the same compound, in series [2] (faster titration, to day 7), the “Incidents of dizziness, syncope, or accidental trauma” value is on record as “no reported incidents of dizziness, syncope, or accidental trauma” and the Other adverse events result is “no other adverse events”. Also, the “Efficacy in treating schizophrenia relative to haloperidol and risperidone” value in series [3] was “comparable to that of haloperidol and risperidone”.
